In test [1] the test system is Leishmania donovani. Briefly: Antileishmanial activity against Leishmania donovani infections in hamsters (at 13 mg/kg). The format is functional.
The subject of test [2] is Leishmania donovani. Briefly: Antileishmanial activity against Leishmania donovani infections in hamsters (208 mg/kg). The format is functional, organism-based.
Test [3] relates to Leishmania donovani. Nature of the test: Antileishmanial activity against Leishmania donovani infections in hamsters (at 52 mg/kg). The format is functional.
The test system of test [4] is Leishmania donovani. Briefly: Antileishmanial activity against Leishmania donovani infections in hamsters (0.81 mg/kg). The format is functional.
The test system of test [5] is Leishmania donovani. Briefly: Antileishmanial activity against Leishmania donovani infections in hamsters (3.25 mg/kg). The format is functional.
For test [6], the system named is Leishmania donovani. Nature of the test: Glucantime (meglumine antimoniate) index (G index) against Leishmania donovani infections in hamsters. The format is functional.

Suppression and G index data for 17 compounds are collected here from ChEMBL document CHEMBL1122322, “Synthesis and antileishmanial activity of 6-methoxy-4-methyl-N-[6-(substituted-1-piperazinyl)hexyl]-8-quinolinamines and related compounds” (1983).

On to `COc1cc(NCCCCCCN2CCN(CCO)CC2)c2nccc(C)c2c1Oc1cccc(C(F)(F)F)c1.Cl`, for which the Suppression in the test with Leishmania donovani [1] was 98%; with Leishmania donovani [2], “Toxic”; in the test with Leishmania donovani [3] it was 99.1%.

Turning to `COc1cc(NCCCCCCN2CCN(CCO)CC2)c2nccc(C)c2c1.Cl`, the Suppression in the test with Leishmania donovani [4] is recorded as 85.8%; with Leishmania donovani [1] it was 100%; with Leishmania donovani [5] it was 97%; in the test on Leishmania donovani [3], 100%. This compound also came in with a G index in the test with Leishmania donovani [6] of 104.

On to `COc1cc(NCCCCCCN2CCN(C(c3ccccc3)c3ccc(Cl)cc3)CC2)c2nccc(C)c2c1.Cl.Cl` (centres undefined), for which the Suppression with Leishmania donovani [4] was 70%; in the test on Leishmania donovani [1], 99.4%; with Leishmania donovani [2], “Toxic”; in the test with Leishmania donovani [5], 100%; with Leishmania donovani [3], 96.8%. Further, the G index in the test with Leishmania donovani [6] worked out at 23.

The compound `COc1cc(NCCCCCCNC(C)C)c2nc(C)cc(C)c2c1.Cl` showed a G index in the test with Leishmania donovani [6] of 42.

`COc1cc(NCCCCCCNC(C)C)c2nccc(C)c2c1Oc1cccc(C(F)(F)F)c1`: the Suppression is 98.6% in the test with Leishmania donovani [1] and “Toxic” in the test on Leishmania donovani [2].

In the test with Leishmania donovani [6], `CCN(CC)CCCCCCNc1cc(OC)cc2c(C)cc(C)nc12.Cl` came in with a G index of 32.

For `CCNC(=O)N1CCN(CCCCCCNc2cc(OC)cc3c(C)ccnc23)CC1.Cl`, the Suppression with Leishmania donovani [4] was 35.9%; in the test on Leishmania donovani [1], 99.2%; in the test with Leishmania donovani [2], “Toxic”; with Leishmania donovani [5], 84.1%; with Leishmania donovani [3] it was 100%. In the test with Leishmania donovani [6], this compound displayed a G index of 9.

Consider `COc1cc(NCCCCCCN2CCN(CCCO)CC2)c2nccc(C)c2c1`, for which the values for the Suppression in the test with Leishmania donovani [1], with Leishmania donovani [2] and in the test on Leishmania donovani [3] were 96.3%, “Toxic” and 97.8%, respectively. The compound also showed a G index with Leishmania donovani [6] of 38.

As to `COc1cc(NCCCCCCN2CCN(C(=O)OCc3ccccc3)CC2)c2nccc(C)c2c1.Cl`, the Suppression in the test with Leishmania donovani [1] is 54.6%; with Leishmania donovani [2] it was “Toxic”; in the test with Leishmania donovani [3], 98%. In the test with Leishmania donovani [6], this compound returned a G index of 2.3.

On to `CCN(CC)C(=O)N1CCN(CCCCCCNc2cc(OC)cc3c(C)ccnc23)CC1.Cl`, for which the Suppression with Leishmania donovani [1] was 98.8%; with Leishmania donovani [2] it was “Toxic”; in the test on Leishmania donovani [5], 72.2%; in the test with Leishmania donovani [3] it was 98.6%. Also, the G index in the test with Leishmania donovani [6] turned out to be 8.

Take `COc1cc(NCCCCCCN2C[C@@H](C)S[C@@H](C)C2)c2nccc(C)c2c1`: the Suppression in the test with Leishmania donovani [1] is 81.1%; in the test on Leishmania donovani [2] it was “Toxic”; in the test with Leishmania donovani [3], 93.7%. This compound also yielded a G index with Leishmania donovani [6] of 1.5.

For the compound `CCN(CC)CCCCCCNc1cc(OC)c(Oc2cccc(C(F)(F)F)c2)c2c(C)ccnc12`, the Suppression in the test with Leishmania donovani [1] was 99.6%; in the test with Leishmania donovani [2], “Toxic”; with Leishmania donovani [3], 100%.

The compound `CC/N=C(\S)N1CCN(CCCCCCNc2cc(OC)cc3c(C)ccnc23)CC1.Cl` showed a G index in the test on Leishmania donovani [6] of 2.

`CCC(C)NCCCCCCNc1cc(OC)cc2c(C)cc(C)nc12.Cl` (centres undefined) gave a G index in the test with Leishmania donovani [6] of 28.

Consider `COc1cc(NCCCCCCN2CCN(CCCN(C)C)CC2)c2nccc(C)c2c1.Cl`, for which the Suppression with Leishmania donovani [1] was 65.8%; with Leishmania donovani [2] it was “Toxic”; in the test on Leishmania donovani [3], 99.7%. Besides, the G index in the test with Leishmania donovani [6] is reported as 2.

Turning to `COc1cc(NCCCCCCN2CC[S+]([O-])CC2)c2nccc(C)c2c1.Cl`, the Suppression in the test with Leishmania donovani [1] is 84.8%; in the test with Leishmania donovani [2] it was “Toxic”; in the test with Leishmania donovani [3], 92.8%. The G index in the test with Leishmania donovani [6] is 3.

`CCN(CC)CC(O)CN1CCN(CCCCCCNc2cc(OC)cc3c(C)ccnc23)CC1.Cl` (centres undefined): the Suppression is 99.7% in the test on Leishmania donovani [1], “Toxic” with Leishmania donovani [2], 32.6% in the test with Leishmania donovani [5] and 99.9% with Leishmania donovani [3]. The compound further returned a G index in the test on Leishmania donovani [6] of 6.
